Patent US20260137774A1, “Hepatitis B Virus Receptor OATP and Use Thereof” (priority 2022, published 2026)

Experiments:
Hela cells = assay: Drug susceptibility test of selection antibiotics on HeLa cells; type: cell-based
HepG2 cells = assay: Drug susceptibility test of selection antibiotics on HepG2 cells; type: cell-based
human OATP1B1 (hOATP1B1) = molecular target: T1, human OATP1B1 (hOATP1B1) (Homo sapiens, UniProt Q9Y6L6); conditions: pH 7.4
T1 sequence (Q9Y6L6 1-691): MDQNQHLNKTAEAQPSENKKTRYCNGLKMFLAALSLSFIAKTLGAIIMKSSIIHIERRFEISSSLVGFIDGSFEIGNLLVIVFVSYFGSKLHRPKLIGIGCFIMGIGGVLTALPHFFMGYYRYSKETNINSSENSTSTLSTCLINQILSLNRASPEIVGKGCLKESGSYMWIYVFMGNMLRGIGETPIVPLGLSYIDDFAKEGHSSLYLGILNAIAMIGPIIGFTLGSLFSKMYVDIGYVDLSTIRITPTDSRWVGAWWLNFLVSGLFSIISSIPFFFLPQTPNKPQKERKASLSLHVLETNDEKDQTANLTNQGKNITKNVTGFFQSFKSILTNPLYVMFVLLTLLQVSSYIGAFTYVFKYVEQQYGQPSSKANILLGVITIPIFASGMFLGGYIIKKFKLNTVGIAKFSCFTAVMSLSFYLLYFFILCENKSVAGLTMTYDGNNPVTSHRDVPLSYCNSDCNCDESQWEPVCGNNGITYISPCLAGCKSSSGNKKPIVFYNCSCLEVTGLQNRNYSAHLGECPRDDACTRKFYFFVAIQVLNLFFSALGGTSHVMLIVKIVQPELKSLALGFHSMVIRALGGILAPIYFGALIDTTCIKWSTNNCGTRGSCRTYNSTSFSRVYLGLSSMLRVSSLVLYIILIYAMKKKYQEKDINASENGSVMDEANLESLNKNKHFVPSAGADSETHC
Description: (§1) Cells for experiments were cultured in DMEM medium at 37° C. and 5% C02. Among them, DMEM medium contains 10% fetal calf serum, penicillin-streptomycin solution (100 U/mL and 0.1 mg/mL) and 0.5 mg/mL geneticin. Before the transfer experiment, cells were seeded in a 24-well plate at a density of 4×10^5 cells/well. The transfer experiment can be performed when the cell confluence reaches 80-90%.
(§2) The concentrations of substrates and positive inhibitors for each transporter are as follows.
(§3) Preparation of working solution: Use PBS to prepare a test substance stock solution with a concentration of 6 mM, and then dilute it with PBS in a gradient to 2000 μM, 1000 μM, 200 μM, 100 μM and 20 μM concentration working solution, and dilute the above working solutions of different concentrations to 20 μM, 10 μM, 2 μM, 1 μM and 0.2 μM concentration dosing solutions (Dosing Solution) respectively, so that the final concentrations of the test substance in the test system are 10 μM, 5 μM and 5 μM respectively. μM, 1 μM, 0.5 μM and 0.1 μM.
(§4) Pre-incubation of OATP1B1 and OATP1B3: Aspirate the culture medium from the culture plate, and wash the cells twice with 37° C. pre-warmed TB buffer (pH7.4), 0.5 mL each time. […] Among them, the NC group includes MOCK cells and each transporter cell, and the MOCK cell group is used to calculate the uptake ratio and passive transport amount. […]

human OATP1B3 (hOATP1B3) = molecular target: T2, human OATP1B3 (hOATP1B3) (Homo sapiens, UniProt Q9NPD5); conditions: pH 7.4
T2 sequence (Q9NPD5 1-702): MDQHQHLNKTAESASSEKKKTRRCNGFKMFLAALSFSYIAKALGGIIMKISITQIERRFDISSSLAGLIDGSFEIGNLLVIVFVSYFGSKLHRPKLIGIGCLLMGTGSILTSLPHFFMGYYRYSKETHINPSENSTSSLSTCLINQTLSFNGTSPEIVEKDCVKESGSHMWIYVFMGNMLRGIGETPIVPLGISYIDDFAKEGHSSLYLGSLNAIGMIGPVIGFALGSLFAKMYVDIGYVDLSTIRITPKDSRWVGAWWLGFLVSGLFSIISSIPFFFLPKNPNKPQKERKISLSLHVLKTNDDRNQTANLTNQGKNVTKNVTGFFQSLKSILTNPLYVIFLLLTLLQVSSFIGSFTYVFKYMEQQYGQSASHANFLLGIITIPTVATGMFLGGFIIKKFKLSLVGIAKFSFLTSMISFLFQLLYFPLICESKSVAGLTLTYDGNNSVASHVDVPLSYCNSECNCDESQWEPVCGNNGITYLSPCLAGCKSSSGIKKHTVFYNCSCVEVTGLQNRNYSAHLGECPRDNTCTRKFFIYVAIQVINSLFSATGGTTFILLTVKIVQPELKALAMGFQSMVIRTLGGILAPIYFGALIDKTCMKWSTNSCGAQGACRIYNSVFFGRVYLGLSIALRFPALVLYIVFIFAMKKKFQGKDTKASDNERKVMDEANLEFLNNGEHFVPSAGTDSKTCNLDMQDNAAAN
Description: as §1, §2, §3, §4

Structure (SMILES) | concentration that could kill all cultured cells (Hela cells) [µg/mL] | concentration that could kill all cultured cells (HepG2 cells) [µg/mL] | uptake ratio of drug substrate (human OATP1B1 (hOATP1B1)) | uptake ratio of drug substrate (human OATP1B3 (hOATP1B3))
COc1ccc(C[C@H](N)C(=O)N[C@H]2[C@@H](O)[C@H](n3cnc4c(N(C)C)ncnc43)O[C@@H]2CO)cc1 [puromycin] | 1 | 1 |  | 
CN(CC[C@H](N)CC(=O)N[C@H]1C=C[C@H](n2ccc(N)nc2=O)O[C@@H]1C(=O)O)C(=N)N [BSD, Blasticidin] |  | 2 |  | 
CCCCC(=O)N(Cc1ccc(-c2ccccc2-c2nnn[nH]2)cc1)[C@H](C(=O)O)C(C)C [valsartan] |  |  | 3.25 | 6.90
